From publication PMC9028786, “The Ribosome Is the Ultimate Receptor for Trypsin Modulating Oostatic Factor (TMOF)” (Biomolecules, 2022)
Ends that are not written are not given here.

How the values were obtained:
E. coli ribosome = test: Binding of AeaTMOF-FITC to purified E. coli ribosomes; parameters: species or system Escherichia coli
Description: The purification of E. coli ribosomes is a modification of earlier published methods. Briefly, E. coli (BL21) cells were grown in LB medium for 24 h to OD600 of 1.1, and the cells were centrifuged at 5000 rpm at 6 °C for 5 min. The supernatant was discarded and the pellet was washed with 40 mM HEPES-KOH pH7.4, 100 mM NaCl, and 2 mM Mg(OAc)2 buffer. The suspension was centrifuged at 6000 rpm for 5 min, the supernatant discarded, and the pellet was frozen at −80 °C and stored overnight. The frozen pellet was taken up in 10 mL of sonication buffer of 20 mM HEPES-KOH pH 7.5, 100 NH4OAc, 6 mM βME, 0.5 mM Na-EDTA, and 0.5% Tween 20 containing 100 units of RNase inhibitor, and the solution was sonicated at 40% power for 10 s, 50% power for 10 s, and 60% power for 20 s. During the sonication, the tube was immersed in an ice bath. The lysed cell solution (25 mL) in sonication buffer was centrifuged at 30,000 g in a Beckman ultracentrifuge using a 70Ti centrifuge rotor for 30 min at 4 °C. After centrifugation, the supernatant was collected, and the pellet discarded. […] The amount of the protein in the ribosome preparation and the ribosomal RNA was determined (2.28 mg/mL protein and 3.932 mg/mL ribosomal RNA). […]
Purified E. coli ribosomes (1 μL, 9.4 μg) in tight association buffer (20 mM HEPES-KOH pH 7.6, 6 mM Mg(OAc)2, 30 mM NH4OAc, and 6 mM βME) were incubated in Eppendorf tubes containing 100 μL of tight association buffer and 5 μL of AeaTMOF-FITC (0–0.2 μM) (Specific activity 8333 Fluorescence Units/pmol) for 60 min at 30 °C with gentle shaking. […] The washing by centrifugation with 5% TCA was repeated 3 times, and after the final centrifugation, the pellets were dissolved in 100 μL of PBS containing 0.4N NaOH, and the fluorescence of the dissolved pellets was read in a GloMax multidetector system using a blue filter (Excitation at 490 nm and Emission at 510–570 nm). All data were corrected for nonspecific fluorescence when incubations were run without AeaTMOF-FITC or with AeaTMOF-FITC and without ribosomes. […]

[1] = test system: trypsin mRNA in the gut epithelial cells; conditions: gut epithelial cells of Ae. aegypti and Neobellieria bullata; cited from earlier work
From the text: Several of these ABC transporters with 80–100% similarity with the AeaTMOF receptor are also found in several Aedes, Anopheles, and ...

luciferase = test: Effect on activity of pre-synthesized luciferase; format: biochemical, Beetle; conditions: results not shown
Description: Incubations of E. coli S30 extract synthesizing Beetle luciferase in the presence of an increasing concentration of AeaTMOF (0.001 to 750 μM) stopped the biosynthesis of luciferase, diminishing its activity on Beetle luciferin as measured in luminescence units. The activity of the in vitro synthesized luciferase on Beetle luciferin at very low concentration of AeaTMOF (0.001 μM) was similar to luciferase activity without AeaTMOF, and this luminescence was used to calculate the decrease in luminescence (%) after incubation with increasing concentrations of AeaTMOF (Figure 1A). Higher concentrations of AeaTMOF (higher than 0.001 μM) caused a linear decrease in the synthesis of luciferase and a decline in luminescence (%) reaching IC50 (inhibition concentration of 50%) at 1 μM (Figure 1A). […] AeaTMOF is not an inhibitor of luciferase.

[2] = test system: E. coli mutant cells CGSC strain 8547 SbmA^- expressing only ABC-tmfA importer; test: Growth/viability of E. coli mutant CGSC strain 8547 SbmA^- expressing ABC-tmfA importer; format: cell-based, Escherichia coli
Description: E. coli CGSC strain […] lacking the SbmA importer expressing the ABCtmfA receptor/importer was prepared using plasmid pTAC-MAT-2 ABCtmfA importer/receptor as described earlier. [3,4,5 ^3H]Leucine 250 μCi, Spc Act 100–150 Ci/mmol was purchased from Perkin Elmer (Waltham, MA, USA). AeaTMOF-FITC (H-YDPAPPPPPPK(FITC)K-OH) was synthesized at the University of Colorado Anschutz School of Medicine protein core. AeaTMOF-FITC was purified by HPLC showing a single peak, and mass spectrometry analysis of the peak identified the 3 expected ions at 455.7, 607.3, and 910.3, showing an expected Mr 1019.56 as was described earlier. Synthetic AeaTMOF (H-YDPAPPPPPP-OH) and a short Oncocin112(1–13) (H-VDKPPYLPRPRPP-OH), a 13 amino acids oncocin112 peptide, 6 amino acids shorter than the original oncocin112 of 19 amino acids, were synthesized and purified by HPLC [16]. After HPLC purifications of AeaTMOF, oncocin112 (1–13), and AeaTMOF-FITC, the TFA ions were exchanged with phosphate ions.
(§1) We aimed to find out if AeaTMOF can also stop bacterial growth as, was shown for the proline-rich Oncocin112 that binds to the bacterial ribosome, stopping protein translation, bacterial growth, and causing bacterial death. E. coli CGSC strain7636 (2.7 × 10^4 cells) SbmA^+, expressing the proline-rich peptides importer SbmA, were incubated in 96-well plate containing 100 μL/well of LB medium, 0.4 mM of IPTG, 0.1 mM of ampicillin, and different concentrations of AeaTMOF and Oncocin112 (1–13) (3 mM and 10 mM) in different wells. The 96-well plate was incubated at 37 °C for 18 h and bacterial growth was followed at 630 nm using Biotech ElX808 absorbance microplate reader. Control wells contained bacterial cells growing without AeaTMOF or oncocin112 (1–13). […] After the incubations in the presence of Oncocin112 (1–13) or AeaTMOF of 10 mM and 3 mM, aliquots (0.5 μL) were removed from each well and spread on LB agar plates containing 0.1 mM of ampicillin, and the plates were incubated overnight at 37 °C and viable colonies were counted. Incubations were done in triplicates and the experiments were repeated twice. Results are expressed as means of three determinations ± SEM.

[3] = test system: E. coli CGSC strain7636 cells expressing SbmA^+; test: Growth/viability of E. coli CGSC strain7636 expressing SbmA; format: cell-based, Escherichia coli; conditions: 3 and 10 mM peptide, 37 °C, 18 h, p < 0.05 vs control
Description: as §1

bacterial 70 S ribosome = test: Inhibition of luciferase translation in E. coli S30 extract; format: biochemical, Escherichia coli
Description: To test the effect of AeaTMOF and Oncocin112 (1–13) on the translation of Luciferase by the bacterial 70 S ribosome, an E. coli S30 lysate extract system for circular DNA (Promega) containing a plasmid pBestluc DNA vector (4486 bp) (1 mg/mL) 0.3 μL, amino acid mixture without methionine (1 mM) 1.25 μL, amino acid mixture without Leucine (1 mM) 1.25 μL, S30 premix (including ribosomes) without amino acids 5 μL, S30 extract circular 3.5 μL, RNasin (8 U, 112 ng) 0.2 μL, different concentrations of AeaTMOF or Oncocin112 (1–13) (0.001 μM to 1000 μM), and nuclease-free water to a volume of 12.5 μL were incubated for 2 h at 37 °C. […] After incubation, 87.5 μL of GLO lysis buffer (Promega) containing beetle luciferin was added, mixed, and aliquots (5 μL) were removed, and their luminescence read in a GLOMAX multidetector system. […] The decrease in luminescence (% ± SEM) in the presence of increasing log AeaTMOF or Oncocin112 (1–13) concentrations was then plotted using GrapPad Prism 3.

**Q.** What does the source list for “H-YDPAPPPPPPK(FITC)K-OH [AeaTMOF-FITC, H-[…](FITC)K-OH, FITC-labelled AeaTMOF]”?
**A.** Kassoc, affinity constant (E. coli ribosome; calculated from specific binding KD): 4.3e+07 M⁻¹; Kd (E. coli ribosome; purified E. coli (BL21) ribosomes 9.4 μg, AeaTMOF-FITC 0–0.2 μM, tight association buffer pH 7.6, 60 min at 30 °C, TCA precipitation, fluorescence, nonspecific binding subtracted, nonlinear regression, ± SEM, n = 6): 23 ± 3.4 nM; Bmax, ribosome binding (E. coli ribosome; purified E. coli ribosomes, AeaTMOF-FITC 0–0.2 μM, pH 7.6, 60 min at 30 °C, fluorescence, nonlinear regression, ± SEM, n = 6): 0.553 ± 0.023 pmol/μg ribosome

**Q.** For “NPTNLH [NebTMOF, NPTNLH, trypsin modulating oostatic factor of Neobellieria bullata, reference compound]”, which “Effect on translation of trypsin mRNA” value [1] is on record?
**A.** The value was “stop the translation of trypsin mRNA”.

**Q.** For “VDKPPYLPRPRPP [Oncocin112 (1–13), reference compound]”, which “Effect on Beetle luciferase biosynthesis versus activity” value (luciferase) is on record?
**A.** Its value is “inhibits Beetle luciferase biosynthesis and not its activity”.

**Q.** What about the E. coli growth ([2]; SbmA^- cells expressing ABC-tmfA importer, 3 and 10 mM peptide, 37 °C, 18 h, 630 nm, p < 0.05 for inhibition) of the same substance?
**A.** The E. coli growth was “grew at the same rate”.

**Q.** And the “E. coli cell growth (discussion)” value ([2]; cells that only expressed ABCtmfA receptor/importer, up to 10 mM)?
**A.** The value was “did not affect the cell growth, even at high concentrations of 10 mM”.

**Q.** What about the Importer used ([2]; inferred from growth of SbmA^+ and SbmA^- ABC-tmfA E. coli, 3 and 10 mM) of the same substance?
**A.** Its Importer used is “can only use the bacterial natural importer SbmA”.

**Q.** What about the E. coli growth ([3]; 630 nm) of the same substance?
**A.** Its E. coli growth is “significantly inhibited the growth of the E. coli cells”.

**Q.** And the “Viable colonies at end of incubation” value ([3]; initial 2.7 × 10^4 cells, LB medium, plated on LB agar, triplicates)?
**A.** The value was 4–10 colonies.

**Q.** And the “Inhibition of luciferase biosynthesis at lowest concentration” value (bacterial 70 S ribosome; AeaTMOF at 0.001 μM, Oncocin112 (1–13) at 0.01 μM, 2 h at 37 °C)?
**A.** Its value is “do not inhibit the biosynthesis of luciferase”.

**Q.** And the IC50 (bacterial 70 S ribosome; E. coli S30 lysate, pBestluc DNA, 2 h at 37 °C, peptide 0.001 to 750 μM, luminescence read-out, mean of three determinations, read-out: IC50, inhibition of luciferase biosynthesis (luminescence))?
**A.** Its IC50 is 2000 nM.

**Q.** What about the “IC50 increase compared with AeaTMOF” value (bacterial 70 S ribosome; IC50 2 μM versus AeaTMOF) of the same substance?
**A.** The value was “twofold increase”.
